Reference: PMC4965013, “Open Source Drug Discovery with the Malaria Box Compound Collection for Neglected Diseases and Beyond” (PLoS Pathogens, 2016)
Values joined by “and” are separate entries in the source; they are usually repeats but may differ in a detail not shown here. Identical values can stand only once.

Key:
[1] = system: bovine Babesia and equine Babesia and Theileria parasites; assay: Babesia and Theileria fluorescence-based assay, all four species; assay type: cell-based, B. bovis, B. bigemina, T. equi, B. caballi; settings: for IC50: Babesia, range over compounds and species, read-out: IC50s for both bovine Babesia and equine Babesia and Theileria parasites
[2] = system: NCI60 human tumor cell lines; assay: NCI60 5-dose (dose-response) assay; assay type: cell-based
Excerpt: Columns IE-KK. NCI: Misra group (data presented first in this paper). NCI60 anti-tumor cell activity. Methods: […] These 60 cell lines, along with others, have been developed at NCI and have been maintained and distributed for research purposes by NCI for over 25 years. The experimental readout provides both inhibition of cell growth and cell kill. The screen was originally designed to prioritize agents for further evaluation. […] This is the same as for the 5-dose assay, described on http://dtp.cancer.gov/branches/btb/ivclsp.html. […] Testing beyond the initial screen: There were 133 compounds that passed threshold to proceed to 5-dose (dose-response) (data are available for the 133 compounds at the DTP public website (dtp.cancer.gov) by searching either the MMV number or NSC number). After examination of the 5-dose data, 10 compounds were selected for repeat testing based generally on potency, differential cell activity or activity on an individual cell lines or cell line panel. A summary of the data for the 10 compounds of interest is in the table below.

[3] = system: P. falciparum 3D7 trophozoites; assay: Metabolomic fingerprint profiling LC-MS; assay type: cell-based, Plasmodium falciparum; set-up: UDP-D-glucose / ADP-D-glucose: unit not given here; settings: for Acetyllysine / N-acetyl-L-ornithine / N-carbamoyl-L-aspartate / NADPH / dAMP / dCMP / dTDP / dTMP / dTTP / dihydroorotate / orotate / DLH / DLS/SDL/SID / PD / PEE / PVNF / 3-phosphoglycerate / ADP-D-glucose / ATP / CDP / D-sedoheptulose-1/7-phosphate / FAD / GMP / NAD+ / NADP+ / Octoluse Bisphosphate / Pyroglutamic acid / UDP-D-glucose / UDP-D-glucuronate / UDP-N-acetyl-glucosamine / UDP / UMP / UTP / a-ketoglutarate / citrate/isocitrate / cytidine / dATP / dGMP/AMP / fumarate / glucose-1/6-phosphate / glycerate / guanine / guanosine / hypoxanthine / indole / inosine / nicotinate / ornithine / phosphoenolpyruvate / pyruvate / ribose-phosphate / sarcosine/alanine / sn-glycerol-3-phosphate / succinate/methylmalonic acid / uridine / xanthosine: S2 Table Metabolomics; for Acetyllysine: metabolite Acetyllysine; for N-acetyl-L-ornithine: metabolite N-acetyl-L-ornithine; for N-carbamoyl-L-aspartate: metabolite N-carbamoyl-L-aspartate; for NADPH: metabolite NADPH; for dAMP: metabolite dAMP; for dCMP: metabolite dCMP; for dTDP: metabolite dTDP; for dTMP: metabolite dTMP; for dTTP: metabolite dTTP; for dihydroorotate: metabolite dihydroorotate; for orotate: metabolite orotate; for DLH: peptide DLH; for DLS/SDL/SID: peptide DLS/SDL/SID; for PD: peptide PD; for PEE: peptide PEE; for PVNF: peptide PVNF; for 3-phosphoglycerate: metabolite 3-phosphoglycerate; for ADP-D-glucose: metabolite ADP-D-glucose; for ATP: metabolite ATP; for CDP: metabolite CDP; for CDP / D-sedoheptulose-1/7-phosphate / GMP / Octoluse Bisphosphate / UDP / UMP / UTP / citrate/isocitrate / dGMP/AMP / fumarate / glucose-1/6-phosphate / glycerate / guanine / guanosine / inosine / pyruvate / sarcosine/alanine / succinate/methylmalonic acid / uridine / xanthosine: change in metabolite level after compound treatment; for D-sedoheptulose-1/7-phosphate: metabolite D-sedoheptulose-1/7-phosphate; for FAD: metabolite FAD; for GMP: metabolite GMP; for NAD+: metabolite NAD+; for NADP+: metabolite NADP+; for Octoluse Bisphosphate: metabolite Octoluse Bisphosphate; for Pyroglutamic acid: metabolite Pyroglutamic acid; for UDP-D-glucose: metabolite UDP-D-glucose; for UDP-D-glucuronate: metabolite UDP-D-glucuronate; for UDP-N-acetyl-glucosamine: metabolite UDP-N-acetyl-glucosamine; for UDP: metabolite UDP; for UMP: metabolite UMP; for UTP: metabolite UTP; for a-ketoglutarate: metabolite a-ketoglutarate; for citrate/isocitrate: metabolite citrate/isocitrate; for cytidine: metabolite cytidine; for dATP: metabolite dATP; for dGMP/AMP: metabolite dGMP/AMP; for fumarate: metabolite fumarate; for glucose-1/6-phosphate: metabolite glucose-1/6-phosphate; for glycerate: metabolite glycerate; for guanine: metabolite guanine; for guanosine: metabolite guanosine; for hypoxanthine: metabolite hypoxanthine; for indole: metabolite indole; for inosine: metabolite inosine; for 2_3-Diphosphoglyceric acid / 4-phosphopantothenate / 6-phospho-D-gluconate / FMN / IMP / Pyrophosphate / Sedoheptoluse bisphosphate / cyclic-AMP / glutathione disulfide / lactate / myo-inositol: metabolite level change after treatment; for nicotinate: metabolite nicotinate; for ornithine: metabolite ornithine; for phosphoenolpyruvate: metabolite phosphoenolpyruvate; for pyruvate: metabolite pyruvate; for ribose-phosphate: metabolite ribose-phosphate; for sarcosine/alanine: metabolite sarcosine/alanine; for sn-glycerol-3-phosphate: metabolite sn-glycerol-3-phosphate; for succinate/methylmalonic acid: metabolite succinate/methylmalonic acid; for uridine: metabolite uridine; for xanthosine: metabolite xanthosine
P. falciparum = assay: EC50 listed in S2 Table Metabolomics (used to set the concentration tested); assay type: cell-based; settings: Plasmodium falciparum; EC50 used for Factor_XEC50 in metabolomics; read-out: EC50_nM
PfPMT = PfPMT (Plasmodium falciparum, UniProt Q8IDQ9); assay: PfPMT gene replacement yeast growth; settings: 100µM
Chain of PfPMT (Q8IDQ9 whole entry): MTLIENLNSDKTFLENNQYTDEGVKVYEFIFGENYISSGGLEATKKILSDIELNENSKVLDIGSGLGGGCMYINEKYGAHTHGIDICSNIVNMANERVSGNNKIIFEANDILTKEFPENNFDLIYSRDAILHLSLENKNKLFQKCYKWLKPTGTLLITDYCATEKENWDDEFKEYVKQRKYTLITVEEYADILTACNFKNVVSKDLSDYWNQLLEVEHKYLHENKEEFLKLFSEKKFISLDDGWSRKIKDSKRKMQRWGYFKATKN

[4] = mean over cell lines of one experiment, listed as 766470/2

`Cn1c(=O)n(C)c2cc(CNCCNc3ccnc4cc(Cl)ccc34)ccc21` [MMV665875] was tested, and the “anti-Babesia and anti-Theileria hits, IC50 in words” value [1] was “nanomolar IC50s”, the “mean selectivity indices (SI)” value [1] was “greater than 230” and the IC50 [1] was 43 to 750 nM.
`COc1ccc(-c2nc3cc(Cc4ccc5[nH]c(-c6ccc(OC)cc6)nc5c4)ccc3[nH]2)cc1` [MMV007384] was tested, and the “Notes (NCI60 5-dose activity pattern)” value [2] was “Colon, differential, potent”, the “MGLI50 = Mean Growth Log I50” value ([2]; 5-dose, mean over NCI60 panel) was -7.34 and the “_MID Log10GI50” value [2, 4] was -7.42 Molar and -7.34 Molar. The “_MID Log10LC50” value [2, 4] was -5.38 Molar and -5.32 Molar, the “_MID Log10TGI” value [2, 4] was -6.22 Molar and -6.17 Molar and the Acetyllysine [3] was -1.262. The N-acetyl-L-ornithine [3] was -1.162, the N-carbamoyl-L-aspartate [3] was -0.09766 and the NADPH [3] was -0.9181. It also gave a dAMP [3] of 0.6855, a dCMP [3] of 0.07883 and a dTDP [3] of 0.07329. The dTMP [3] was 0.1259, the dTTP [3] was -0.4561 and the dihydroorotate [3] was 0.3461. It also gave an orotate [3] of 0.3571, a DLH [3] of -1.971 and a DLS/SDL/SID [3] of -1.761. For the same molecule, the PD [3] was -1.296, the PEE [3] was -1.3661 and the PVNF [3] was -1.589. The 3-phosphoglycerate [3] was -0.215, the ADP-D-glucose [3] was -0.07535 and the ATP [3] was -0.4674. It also gave a CDP [3] of -0.349, a D-sedoheptulose-1/7-phosphate [3] of -0.5757 and an FAD [3] of -0.3245. The GMP [3] was -0.4418, the “NAD+” value [3] was -0.0839 and the “NADP+” value [3] was -0.1415. The “Octoluse Bisphosphate” value [3] was -0.7079, the Pyroglutamic acid [3] was 1.1726 and the UDP-D-glucose [3] was -0.1169. For the same molecule, the UDP-D-glucuronate [3] was -0.3283, the UDP-N-acetyl-glucosamine [3] was -0.1799 and the UDP [3] was -0.2172. The UMP [3] was -0.3886, the UTP [3] was -0.61 and the a-ketoglutarate [3] was 0.7257. The citrate/isocitrate [3] was 1.281, the cytidine [3] was 0.03237 and the dATP [3] was -0.2668. The dGMP/AMP [3] was 0.1319, the fumarate [3] was 0.03505 and the glucose-1/6-phosphate [3] was 0.02257. The glycerate [3] was 0.3902, the guanine [3] was 0.5342 and the guanosine [3] was 0.3398. For the same molecule, the hypoxanthine [3] was 1.128, the indole [3] was 0.6274 and the inosine [3] was 0.7464. It also gave a 2_3-Diphosphoglyceric acid [3] of -0.7853, a 4-phosphopantothenate [3] of 0.02171 and a 6-phospho-D-gluconate [3] of -0.4966. For the same molecule, the FMN [3] was -0.1132, the IMP [3] was -0.008592 and the Pyrophosphate [3] was -0.8081. For the same molecule, the Sedoheptoluse bisphosphate [3] was -0.4298, the cyclic-AMP [3] was -0.3368 and the glutathione disulfide [3] was -0.6284. It also gave a lactate [3] of 0.4073, a myo-inositol [3] of -0.09775 and a nicotinate [3] of 1.038. The ornithine [3] was 0.535, the phosphoenolpyruvate [3] was 0.008692 and the pyruvate [3] was 0.9693. It also gave a ribose-phosphate [3] of -0.5692, a sarcosine/alanine [3] of -0.2789 and a sn-glycerol-3-phosphate [3] of -0.4175. The succinate/methylmalonic acid [3] was -0.1567, the uridine [3] was 0.8329 and the xanthosine [3] was 0.2641. For the same molecule, the EC50 (P. falciparum) was 176 nM and the “candidate inhibitors of PfPMT activity (yeast functional assay)” value (PfPMT) was “candidate inhibitors of PfPMT activity”.
For `CC(C)CCNCC(O)Cn1c2ccccc2c2ccccc21` (centres unmarked) [MMV006787], the “anti-Babesia and anti-Theileria hits, IC50 in words” value [1] was “nanomolar IC50s”.
`Cc1cc(N2CCN(C3CCCC3)CC2)n2c(nc3ccccc32)c1C#N` [MMV006706] was tested, and the “anti-Babesia and anti-Theileria hits, IC50 in words” value [1] was “nanomolar IC50s”, the “mean selectivity indices (SI)” value [1] was “greater than 230” and the IC50 [1] was 43 to 750 nM.
Work on `CCc1ccc(Nc2cc(C)c3ccc(O)cc3n2)cc1` [MMV000570] yielded an Acetyllysine [3] of -3.5798, a N-acetyl-L-ornithine [3] of -2.11 and a N-carbamoyl-L-aspartate [3] of -1.956. For the same molecule, the NADPH [3] was 0.5669, the dAMP [3] was 0.09919 and the dCMP [3] was -0.6377. The dTDP [3] was 0.1581, the dTMP [3] was 0.002348 and the dTTP [3] was -0.746. It also gave a dihydroorotate [3] of -1.827, an orotate [3] of -1.158 and a DLH [3] of -3.486. It also gave a DLS/SDL/SID [3] of -2.98, a PD [3] of -3.426 and a PEE [3] of -2.976. The PVNF [3] was -3.666, the 3-phosphoglycerate [3] was -0.3004 and the ADP-D-glucose [3] was -0.2531. It also gave an ATP [3] of -0.4297, a CDP [3] of 0.1199 and a D-sedoheptulose-1/7-phosphate [3] of -0.03599. For the same molecule, the FAD [3] was 0.02687, the GMP [3] was -0.7921 and the “NAD+” value [3] was -0.005921. The “NADP+” value [3] was 0.04495, the “Octoluse Bisphosphate” value [3] was -0.7521 and the Pyroglutamic acid [3] was 0.02528. It also gave a UDP-D-glucose [3] of -0.0202, a UDP-D-glucuronate [3] of -0.1762 and a UDP-N-acetyl-glucosamine [3] of -0.01786. For the same molecule, the UDP [3] was 0.2064, the UMP [3] was -0.3865 and the UTP [3] was -0.5565. The a-ketoglutarate [3] was -0.893, the citrate/isocitrate [3] was -0.9405 and the cytidine [3] was 0.2459. It also gave a dATP [3] of 0.202, a dGMP/AMP [3] of 0.175 and a fumarate [3] of -1.642. For the same molecule, the glucose-1/6-phosphate [3] was -0.09278, the glycerate [3] was -0.2054 and the guanine [3] was -0.06952. It also gave a guanosine [3] of -0.3954, a hypoxanthine [3] of 0.06102 and an indole [3] of -0.08521. It also gave an inosine [3] of -0.1832, a 2_3-Diphosphoglyceric acid [3] of -0.3845 and a 4-phosphopantothenate [3] of -0.2389. The 6-phospho-D-gluconate [3] was -0.3077, the FMN [3] was -0.01655 and the IMP [3] was -0.277. It also gave a Pyrophosphate [3] of 0.07301, a Sedoheptoluse bisphosphate [3] of -0.5323 and a cyclic-AMP [3] of -0.9231. The glutathione disulfide [3] was -0.5684, the lactate [3] was -0.3085 and the myo-inositol [3] was -0.5155. It also gave a nicotinate [3] of 0.1664, an ornithine [3] of -0.4755 and a phosphoenolpyruvate [3] of -0.0203. For the same molecule, the pyruvate [3] was 0.06241, the ribose-phosphate [3] was -0.6825 and the sarcosine/alanine [3] was -1.674. The sn-glycerol-3-phosphate [3] was -0.5868, the succinate/methylmalonic acid [3] was -0.5023 and the uridine [3] was -0.4463. The xanthosine [3] was -1.566, the EC50 (P. falciparum) was 194 nM and the “candidate inhibitors of PfPMT activity (yeast functional assay)” value (PfPMT) was “candidate inhibitors of PfPMT activity”.
With `CN(C)c1ccc(N=Cc2ccc(N3CCOCC3)cc2)cc1` [MMV073843] the “anti-Babesia and anti-Theileria hits, IC50 in words” value [1] was “nanomolar IC50s”, the “mean selectivity indices (SI)” value [1] was “greater than 230” and the IC50 [1] was 43 to 750 nM.
In the case of `CC(C)(C)CC(C)(C)NCC(O)COc1ccc(Cl)cc1Cl` (centres unmarked) [MMV396794], the “anti-Babesia and anti-Theileria hits, IC50 in words” value [1] is reported as “nanomolar IC50s”.
With `CCOc1ccc(CN2CCN(CC(O)COc3ccc(OCC(O)CN4CCN(Cc5ccc(OCC)cc5)CC4)cc3)CC2)cc1` (centres unmarked) [MMV007092] the “anti-Babesia and anti-Theileria hits, IC50 in words” value [1] was “nanomolar IC50s”.
For `CCCC(c1nnnn1C1CCCCC1)N1CCN(C(=O)c2ccco2)CC1` (centres unmarked) [MMV666093], the “anti-Babesia and anti-Theileria hits, IC50 in words” value [1] was “nanomolar IC50s”, the “mean selectivity indices (SI)” value [1] was “greater than 230” and the IC50 [1] was 43 to 750 nM.
